Key:
EGFR tyrosine kinase = molecular target: T1, EGFR tyrosine kinase (Homo sapiens, UniProt P00533); experiment: Protein tyrosine kinase phosphorylation assay, Test (a), EGFR; assay type: biochemical; details: ATP at Km concentration; read-out: IC50 Test (a): Inhibition of EGFR tyrosine kinase protein phosphorylation
T1 construct: Recombinant intracellular fragments of EGFR, erbB2 and erbB4; made in house; host or cells: baculovirus/Sf21 insect cells
Protocol: (§1) This test measures the ability of a test compound to inhibit the phosphorylation of a tyrosine containing polypeptide substrate by EGFR, erbB2 and erbB4 tyrosine kinase enzyme.
(§2) Recombinant intracellular fragments of EGFR, erbB2 and erbB4 (accession numbers X00588, X03363 and L07868 respectively) were cloned and expressed in the baculovirus/Sf21 system. […]
(§3) Constitutive kinase activity of these recombinant proteins was determined by their ability to phosphorylate a synthetic peptide (made up of a random co-polymer of Glutamic Acid, Alanine and Tyrosine in the ratio of 6:3:1). […]
(§4) The immobilised phospho-peptide product of the reaction was detected by immunological methods. […] After further washing, HRP activity in each well of the plate was measured colorimetrically using 22′-Azino-di-[3-ethylbenzthiazoline sulfonate (6)]diammonium salt crystals (ABTS™ from Roche) as a substrate.
(§5) Quantification of colour development and thus enzyme activity was achieved by the measurement of absorbance at 405 nm on a Molecular Devices ThermoMax microplate reader. Kinase inhibition for a given compound was expressed as an IC50 value. […] The range of phosphorylation was calculated from the positive (vehicle plus ATP) and negative (vehicle minus ATP) control values.

[1] = molecular target: T2, erbB2 in MCF7 derived cell line (Clone 24 cells) (Homo sapiens, UniProt P04626); experiment: Clone 24 phospho-erbB2 cell assay, Test (c); assay type: cell-based; details: MCF7 derived Clone 24 cells, 4 hours; read-out: IC50 Test (c): Inhibition of erbB2 tyrosine kinase protein phosphorylation
T2 construct: a cell line that overexpresses full length wild type erbB2 protein; expressed in transfected cells; host or cells: MCF7 (breast carcinoma) cells, 'Clone 24'
Protocol: This immunofluorescence end point assay measures the ability of a test compound to inhibit the phosphorylation of erbB2 in a MCF7 (breast carcinoma) derived cell line which was generated by transfecting MCF7 cells with the full length erbB2 gene using standard methods to give a cell line that overexpresses full length wild type erbB2 protein (hereinafter ‘Clone 24’ cells).
Clone 24 cells were cultured in Growth Medium (phenol red free Dulbecco's modified Eagle's medium (DMEM) containing 10% foetal bovine serum, 2 mM glutamine and 1.2 mg/ml G418) in a 7.5% CO2 air incubator at 37° C. […] Cell density was measured using a haemocytometer and viability was calculated using Trypan Blue solution before being further diluted in Growth Medium and seeded at a density of 1×10^4 cells per well (in 100 μl) into clear bottomed 96 well plates (Packard, No. 6005182). […]
Immunostaining was performed at room temperature. […] Plates were analysed within six hours of completing the immunostaining.
The Fluorescence signal is each well was measured using an Acumen Explorer Instrument (Acumen Bioscience Ltd.), a plate reader that can be used to rapidly quantitate features of images generated by laser-scanning. […]

erbB2 tyrosine kinase = molecular target: T3, erbB2 tyrosine kinase (Homo sapiens, UniProt P04626); experiment: Protein tyrosine kinase phosphorylation assay, Test (a), erbB2; assay type: biochemical; details: ATP at Km concentration; read-out: IC50 Test (a): Inhibition of erbB2 tyrosine kinase protein phosphorylation
T3 construct: Recombinant intracellular fragments of EGFR, erbB2 and erbB4; made in house; host or cells: baculovirus/Sf21 insect cells
Protocol: as §1, §2, §3, §4, §5

T3 sequence (P04626 676-1255 limits assumed): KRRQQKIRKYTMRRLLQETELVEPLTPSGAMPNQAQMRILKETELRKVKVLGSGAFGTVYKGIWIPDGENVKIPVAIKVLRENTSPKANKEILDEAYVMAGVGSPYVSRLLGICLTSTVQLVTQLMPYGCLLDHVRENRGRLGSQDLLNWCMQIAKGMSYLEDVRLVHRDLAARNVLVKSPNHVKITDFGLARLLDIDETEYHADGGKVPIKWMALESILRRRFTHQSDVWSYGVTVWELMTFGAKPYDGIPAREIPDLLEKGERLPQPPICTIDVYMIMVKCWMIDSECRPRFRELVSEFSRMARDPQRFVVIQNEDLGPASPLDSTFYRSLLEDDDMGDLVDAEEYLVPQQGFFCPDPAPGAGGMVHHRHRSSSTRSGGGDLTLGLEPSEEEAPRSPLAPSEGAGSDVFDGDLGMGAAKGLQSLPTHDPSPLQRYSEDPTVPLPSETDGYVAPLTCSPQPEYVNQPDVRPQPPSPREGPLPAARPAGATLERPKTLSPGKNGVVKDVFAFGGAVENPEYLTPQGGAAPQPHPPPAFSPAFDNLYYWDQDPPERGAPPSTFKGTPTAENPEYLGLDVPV
T1 sequence (P00533 669-1210 limits assumed): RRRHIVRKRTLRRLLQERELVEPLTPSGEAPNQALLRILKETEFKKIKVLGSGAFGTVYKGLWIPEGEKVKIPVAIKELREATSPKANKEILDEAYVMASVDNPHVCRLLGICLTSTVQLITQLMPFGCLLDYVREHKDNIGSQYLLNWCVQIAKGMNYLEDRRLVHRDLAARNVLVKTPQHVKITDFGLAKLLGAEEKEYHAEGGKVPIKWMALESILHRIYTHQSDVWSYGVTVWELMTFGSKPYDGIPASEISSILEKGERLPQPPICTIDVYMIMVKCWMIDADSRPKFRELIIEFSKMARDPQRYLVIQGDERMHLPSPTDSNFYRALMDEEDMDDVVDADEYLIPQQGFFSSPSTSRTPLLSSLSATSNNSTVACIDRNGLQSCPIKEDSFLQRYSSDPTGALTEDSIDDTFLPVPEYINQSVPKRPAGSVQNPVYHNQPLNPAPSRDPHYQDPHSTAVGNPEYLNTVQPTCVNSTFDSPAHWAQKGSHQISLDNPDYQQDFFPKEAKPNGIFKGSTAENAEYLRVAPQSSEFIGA
T2 sequence (P04626 23-1255): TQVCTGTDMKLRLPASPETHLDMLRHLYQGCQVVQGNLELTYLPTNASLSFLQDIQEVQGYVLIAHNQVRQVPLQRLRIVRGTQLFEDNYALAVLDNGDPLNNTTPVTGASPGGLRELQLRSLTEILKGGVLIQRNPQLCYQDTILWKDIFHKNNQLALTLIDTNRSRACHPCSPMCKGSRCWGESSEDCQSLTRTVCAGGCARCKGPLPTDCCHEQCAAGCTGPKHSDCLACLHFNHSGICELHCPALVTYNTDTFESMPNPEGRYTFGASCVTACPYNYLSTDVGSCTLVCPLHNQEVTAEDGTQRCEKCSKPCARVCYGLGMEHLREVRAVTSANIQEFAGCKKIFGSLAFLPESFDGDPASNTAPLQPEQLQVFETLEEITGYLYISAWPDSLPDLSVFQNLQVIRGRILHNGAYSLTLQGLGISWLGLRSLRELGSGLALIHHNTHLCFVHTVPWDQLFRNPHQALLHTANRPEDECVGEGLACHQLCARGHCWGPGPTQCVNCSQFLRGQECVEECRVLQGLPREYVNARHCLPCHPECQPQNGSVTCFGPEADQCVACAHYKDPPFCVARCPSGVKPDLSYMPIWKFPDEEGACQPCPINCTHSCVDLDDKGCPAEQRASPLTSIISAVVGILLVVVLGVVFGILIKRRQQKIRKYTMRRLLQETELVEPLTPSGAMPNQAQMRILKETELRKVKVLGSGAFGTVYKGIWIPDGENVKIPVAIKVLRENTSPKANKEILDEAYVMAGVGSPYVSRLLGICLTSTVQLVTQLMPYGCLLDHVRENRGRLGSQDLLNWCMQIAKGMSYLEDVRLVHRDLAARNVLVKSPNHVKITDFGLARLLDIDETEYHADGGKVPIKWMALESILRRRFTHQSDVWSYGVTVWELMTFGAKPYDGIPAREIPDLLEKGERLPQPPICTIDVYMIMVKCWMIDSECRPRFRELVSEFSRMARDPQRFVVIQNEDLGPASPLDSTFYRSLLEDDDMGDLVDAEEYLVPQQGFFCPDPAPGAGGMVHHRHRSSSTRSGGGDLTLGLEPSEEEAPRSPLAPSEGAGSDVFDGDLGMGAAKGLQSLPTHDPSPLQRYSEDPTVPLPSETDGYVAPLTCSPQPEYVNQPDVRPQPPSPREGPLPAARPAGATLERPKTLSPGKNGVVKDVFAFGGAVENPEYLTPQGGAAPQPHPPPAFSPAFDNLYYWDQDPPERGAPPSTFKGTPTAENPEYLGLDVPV

IC50 (EGFR tyrosine kinase) | IC50 [1] | IC50 (erbB2 tyrosine kinase) | SMILES
1 nM | 35 nM | 38 nM | O=C(CO)N1CCCC[C@@H]1COc1cccc2ncnc(Nc3ccc4c(ccn4Cc4cscn4)c3)c12 [Example 2, 2-Oxo-2-((2R)-2-{[(4-{[1-(1,3-thiazol-4-ylmethyl)-1H-indol-5-yl]amino}quinazolin-5-yl)oxy]methyl}piperidin-1-yl)ethanol]
1 nM |  | 1 nM | O=C(CO)N1CCCC[C@@H]1COc1cccc2ncnc(Nc3ccc4c(ccn4Cc4ccccn4)c3)c12 [Example 1, 2-Oxo-2-((2R)-2-{[(4-{[1-(pyridin-2-ylmethyl)-1H-indol-5-yl]amino}quinazolin-5-yl)oxy]methyl}piperidin-1-yl)ethanol]
